The structures appear in SMILES notation.

Activity, PD50 and CC50 data for ten compounds are collected here from ChEMBL document CHEMBL1130439, “Constrained analogues of 2-nor cyclic nucleoside monophosphates” (1997).

Assay [1] concerns Vero. Description: Compound was tested against HSV-2 (186 strain) in plaque reduction assay in Vero cells; no inhibition up to 100 ug/ml. The class given is functional, cell-based. The settings on record: Chlorocebus sabaeus. (In a plaque reduction assay, fewer plaques than in the control indicate reduced infectivity or spread.)
In assay [2] the test system is Vero. Description: Compound was tested against HSV-1 (KOS strain) in plaque reduction assay in Vero cells; no inhibition up to 100 ug/ml. It counts as functional, cell-based. The note with it: Chlorocebus sabaeus.
Assay [3] concerns F2002 cell line. Briefly: The compound was tested for inhibitory activity against human cytomegalovirus (HCMV) (WFl strain) in plaque reduction assay in flow 2002 cells. It counts as functional.
In assay [4] the test system is F2002 cell line. Briefly: The compound was tested for inhibitory activity against human cytomegalovirus (HCMV) in flow 2002 cells. The class given is functional. The note with it: read-out: CD50 (the source's name).
The test system of assay [5] is MT4. Description: Compound was tested against HIV-l (RF strain) in plaque reduction assay in MT-4 cells; no inhibition up to 100 ug/ml.. It counts as functional, cell-based. The settings on record: Homo sapiens.
Assay [6] deals with MT4. Briefly: Compound was tested against HIV-l (RF strain) in plaque reduction assay in MT-4 cells; no inhibition up to 100 ug/ml. The class given is functional, cell-based. The settings on record: Homo sapiens.
Assay [7] concerns F2002 cell line. Description: The compound was tested for inhibitory activity against human cytomegalovirus (HCMV) in flow 2002 cells; no inhibition up to 100 ug/ml. It counts as functional, cell-based.

On to `O=c1ccn(C2CSC3(COP(=O)(O)OC3)O2)c(=O)[nH]1` (stereo not given), for which the Activity entry in the assay with Vero [1], in the assay on Vero [2] and in the assay with MT4 [5] was “No inhibition” throughout. Besides, in the assay with F2002 cell line [3], the PD50 was determined as 2.5 µg/mL. The CC50 in the assay with F2002 cell line [4] is over 100 µg/mL.
Consider `N.Nc1nc2c(ncn2C2CSC3(COP(=O)(O)OC3)O2)c(=O)[nH]1` (stereo not given), for which the Activity result with Vero [1], with Vero [2] and with MT4 [6] was “No inhibition” each time. Besides, the PD50 in the assay with F2002 cell line [3] is over 100 µg/mL. In addition, the CC50 in the assay with F2002 cell line [4] was over 100 µg/mL.
Consider `Nc1nc(=O)n(C2CSC3(COP(=O)(O)OC3)O2)cc1Br` (stereo not given), for which the Activity entry in the assay on Vero [1], in the assay with Vero [2] and with MT4 [6] was “No inhibition” in each case. The compound further showed a PD50 in the assay on F2002 cell line [3] of 2.5 µg/mL. For the same compound, the CC50 in the assay on F2002 cell line [4] is over 100 µg/mL.
With `CC(=O)Nc1nc(=O)n(C2CSC(CO)(CO)O2)cc1Br` (stereo not given), the Activity entry in the assay on F2002 cell line [7] is “No inhibition”.
For `Cc1cn(C2CSC3(COP(=O)(O)OC3)O2)c(=O)[nH]c1=O` (stereo not given), the Activity entry in the assay with Vero [1], in the assay on Vero [2] and in the assay on MT4 [6] was “No inhibition” in each case. For the same compound, the PD50 in the assay with F2002 cell line [3] is over 100 µg/mL. The CC50 with F2002 cell line [4] is over 100 µg/mL.
In the case of `O=c1ccn(C2CSC(CO)(CO)O2)c(=O)[nH]1` (stereo not given), the Activity entry with F2002 cell line [7] is “No inhibition”.
`Nc1nc2c(ncn2COC(CO)CO)c(=O)[nH]1` [GANCICLOVIR]: in the assay with F2002 cell line [3], the PD50 turned out to be 0.1 µg/mL. Further, the CC50 in the assay on F2002 cell line [4] is over 100 µg/mL.
For `CC(=O)Nc1ccn(C2CSC(CO)(CO)O2)c(=O)n1` (stereo not given), the Activity entry in the assay with F2002 cell line [7] is “No inhibition”.
As for `N.Nc1ccn(C2CSC3(COP(=O)(O)OC3)O2)c(=O)n1` (stereo not given), the Activity entry with Vero [1], in the assay with Vero [2] and with MT4 [6] was “No inhibition” in each case. Further, the PD50 in the assay on F2002 cell line [3] turned out to be 11 µg/mL. Moreover, the CC50 in the assay on F2002 cell line [4] was over 100 µg/mL.
With `Nc1nc(=O)n(C2CSC3(COP(=O)(O)OC3)O2)cc1F` (stereo not given), the Activity result in the assay on Vero [1], with Vero [2] and with MT4 [6] was “No inhibition” each time. In addition, in the assay with F2002 cell line [3], the PD50 was over 100 µg/mL. The CC50 in the assay with F2002 cell line [4] is over 100 µg/mL.
